Reference: US20250236607A1, “CYCLIN-DEPENDENT KINASE 9 (CDK9) DEGRADERS AND METHODS OF USING THEREOF” (OHIO STATE INNOVATION FOUNDATION, priority 2022, published 2025)
≈ marks a conversion by molar mass, not a printed value. Where “and” joins values, the source holds several entries; their conditions need not be identical. Equal values may be shown once. Read-outs that look alike come from different tables or passages of the source.

Experiments:
MOLM13 cells [1] = assay: Cytotoxicity against MOLM13 cells; type: cell-based
CDK9 [2] = molecular target: T1, CDK9 (Homo sapiens, UniProt P50750+Q96SW2); assay: CDK9 degradation potency (DC50) of VIP152-based degraders; type: cell-based; details: VIP152-based series
T1 construct: endogenous in cells
T1 sequence (P50750 whole entry): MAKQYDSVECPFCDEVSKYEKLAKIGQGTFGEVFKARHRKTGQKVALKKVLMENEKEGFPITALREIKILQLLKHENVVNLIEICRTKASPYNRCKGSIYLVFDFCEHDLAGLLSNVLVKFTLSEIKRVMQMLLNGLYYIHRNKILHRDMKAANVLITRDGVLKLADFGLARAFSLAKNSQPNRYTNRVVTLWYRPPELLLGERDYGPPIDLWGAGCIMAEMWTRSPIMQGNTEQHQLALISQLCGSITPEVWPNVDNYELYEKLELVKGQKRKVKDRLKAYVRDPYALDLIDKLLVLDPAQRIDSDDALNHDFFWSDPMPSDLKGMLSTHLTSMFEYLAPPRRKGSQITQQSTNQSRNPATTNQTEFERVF
T1 sequence (O60563 whole entry partner): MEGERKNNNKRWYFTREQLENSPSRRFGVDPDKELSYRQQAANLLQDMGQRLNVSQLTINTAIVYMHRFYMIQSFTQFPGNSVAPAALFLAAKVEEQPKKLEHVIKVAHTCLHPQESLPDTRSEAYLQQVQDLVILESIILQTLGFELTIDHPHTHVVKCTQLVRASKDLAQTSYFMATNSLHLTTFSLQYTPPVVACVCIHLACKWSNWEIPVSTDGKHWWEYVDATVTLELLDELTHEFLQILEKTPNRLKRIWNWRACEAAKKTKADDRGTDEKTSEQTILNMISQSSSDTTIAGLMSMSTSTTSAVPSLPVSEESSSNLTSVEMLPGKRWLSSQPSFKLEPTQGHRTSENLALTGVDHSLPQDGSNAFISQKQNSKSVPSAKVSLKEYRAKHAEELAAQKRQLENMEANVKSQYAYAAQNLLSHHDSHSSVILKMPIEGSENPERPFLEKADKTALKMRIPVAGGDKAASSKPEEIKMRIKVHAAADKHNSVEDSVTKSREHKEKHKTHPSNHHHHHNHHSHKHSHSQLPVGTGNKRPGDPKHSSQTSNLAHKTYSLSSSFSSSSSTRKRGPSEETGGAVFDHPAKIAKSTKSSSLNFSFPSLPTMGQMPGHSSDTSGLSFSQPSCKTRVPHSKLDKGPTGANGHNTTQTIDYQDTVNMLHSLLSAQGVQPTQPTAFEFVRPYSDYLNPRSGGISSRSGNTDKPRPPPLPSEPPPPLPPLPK
T1 sequence (Q96SW2 whole entry): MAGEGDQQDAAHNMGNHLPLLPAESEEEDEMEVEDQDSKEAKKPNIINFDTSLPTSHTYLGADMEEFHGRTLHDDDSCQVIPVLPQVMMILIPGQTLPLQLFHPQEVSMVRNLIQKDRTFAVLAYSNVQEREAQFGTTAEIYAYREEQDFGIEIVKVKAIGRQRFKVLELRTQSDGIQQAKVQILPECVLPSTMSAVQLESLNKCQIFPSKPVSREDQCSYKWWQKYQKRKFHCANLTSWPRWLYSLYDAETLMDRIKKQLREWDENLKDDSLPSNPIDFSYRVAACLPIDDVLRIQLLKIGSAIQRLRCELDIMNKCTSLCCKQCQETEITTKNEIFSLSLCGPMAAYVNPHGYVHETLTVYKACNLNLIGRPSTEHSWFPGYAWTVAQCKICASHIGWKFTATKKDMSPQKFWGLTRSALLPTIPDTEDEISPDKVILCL
T1 sequence (Q16531 whole entry partner): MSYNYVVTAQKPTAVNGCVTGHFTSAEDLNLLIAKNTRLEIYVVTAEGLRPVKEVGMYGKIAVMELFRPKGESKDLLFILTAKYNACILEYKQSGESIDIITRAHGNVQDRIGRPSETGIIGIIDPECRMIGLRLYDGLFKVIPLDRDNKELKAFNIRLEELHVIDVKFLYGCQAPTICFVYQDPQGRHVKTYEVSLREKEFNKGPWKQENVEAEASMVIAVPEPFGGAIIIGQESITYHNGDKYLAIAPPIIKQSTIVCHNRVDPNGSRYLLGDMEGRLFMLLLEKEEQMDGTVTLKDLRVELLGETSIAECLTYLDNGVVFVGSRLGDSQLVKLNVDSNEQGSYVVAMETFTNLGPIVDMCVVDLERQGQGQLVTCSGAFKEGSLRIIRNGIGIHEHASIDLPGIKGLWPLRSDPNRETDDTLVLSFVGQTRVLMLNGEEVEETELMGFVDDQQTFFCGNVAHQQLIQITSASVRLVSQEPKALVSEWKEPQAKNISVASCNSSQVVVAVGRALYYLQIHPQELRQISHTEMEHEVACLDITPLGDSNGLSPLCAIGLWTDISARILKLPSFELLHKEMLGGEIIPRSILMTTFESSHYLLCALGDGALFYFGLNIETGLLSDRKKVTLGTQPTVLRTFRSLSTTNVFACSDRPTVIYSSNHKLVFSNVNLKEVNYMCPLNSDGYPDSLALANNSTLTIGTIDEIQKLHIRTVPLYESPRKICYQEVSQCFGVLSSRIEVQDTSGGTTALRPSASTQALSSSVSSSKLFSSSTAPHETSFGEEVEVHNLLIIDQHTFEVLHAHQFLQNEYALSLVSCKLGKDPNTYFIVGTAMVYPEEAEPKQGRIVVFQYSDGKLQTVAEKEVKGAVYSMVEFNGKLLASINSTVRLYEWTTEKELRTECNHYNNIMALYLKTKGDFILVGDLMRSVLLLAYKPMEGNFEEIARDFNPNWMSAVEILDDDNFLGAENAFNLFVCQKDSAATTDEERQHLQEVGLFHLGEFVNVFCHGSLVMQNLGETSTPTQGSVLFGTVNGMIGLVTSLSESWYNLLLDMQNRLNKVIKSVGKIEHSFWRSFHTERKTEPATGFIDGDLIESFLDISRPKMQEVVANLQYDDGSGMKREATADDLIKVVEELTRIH
From the text: Through amide coupling using I-ethyl-3-carbodiimide hydrochloride (EDC.HCl), the alkynyl derivatives of 4.16, 4.29 and 4.30 were synthesized. Using these VIP152-derivatives, degraders 4.31, 4.33 and 4.34 were synthesized using click chemistry. Degrader 4.32 was also synthesized using amide coupling conditions with (1-[Bis([…])methylene]-1H-1,2,3-triazolo[4,5-b]pyridinium 3-oxide hexafluorophosphate (HATU) and the carboxylic acid 4.28. Scheme 7 illustrates the synthesis of this initial series. The series was evaluated for cytotoxicity against MOLM13 cells (IC50) and for their CDK9 degradation potency (DC50). The results are provided in Table 3.

[3] = Chromatographic log D determination (log k′80); type: physicochemical; details: chromatographic log D, PLRP-S column, pH 7.72
Summary of the method: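 Samples were diluted from DMSO stock to 122 μM in acetonitrile and run on a PLRP-S column in 20:80 aqueous ammonium acetate/acetonitrile, pH 7.72, at 1 mL/min with UV detection at 337 nm. log k′80 used a fixed 0.3 min dead time derived from a five-compound standard set. Runs were done in triplicate.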

MOLM13 cells [4] = assay: Protein shift experiment, cytotoxicity in FBS vs human serum, MOLM13; type: cell-based
From the text: In order to determine the suitability of the lead compounds for advanced biological studies, the four degraders (4.49, 4.62, 4.72 and 4.78) were selected for a protein-shift analysis due to their higher potency and solubility.

Kinetic solubility assay = details: kinetic solubility, PBS pH 7.4; for solubility at 1.5 h: phosphate buffered saline, pH 7.4, aqueous buffer, kinetic from dmso stock, Solubility (μM)
Procedure: (§2) Kinetic Solubility Assay. Kinetic solubility (KS) was measured according to Millipore protocol PC2445 EN00. Test compounds were weighed and diluted with DMSO to 10 mM. From the stock solutions as well as blank (100% DMSO) was taken 17.5 μL and diluted to 500 μM with 332.5 μL of 100 mM phosphate Buffered Saline (PPBS) at pH 7.4 in a 96-well quartz plate. From the 500 μM solutions was taken 150 μL and dispensed into a 96-well Millipore filter plate (Product number: MSSLBPC10). In the quartz plate, serial dilutions were performed down to 0.5 μM using the 100 mM PBS solution, leaving 100 μL of each test sample at 11 different concentrations, representing standards. These steps were performed in triplicate, at minimum, for each test compound. Both plates were shaken on an orbital shaker at 150 rpm for 1.5 hours. The contents of the filter plate were filtered and 100 μL of the filtrate from each well was dispensed into the quartz plate containing standards. The quartz plate was then analyzed using a UV plate reader where absorbance was measured at the relevant wavelength for each compound. After blank subtraction, for each test sample, solubility was determined based on the optical density of filtered samples and the equations derived from the corresponding linear standard curve.

MV411 cells = assay: MTS cytotoxicity assay against MV411 cells; type: cell-based
Procedure: (§1) The obtained compounds were tested in biological experiments to measure their potency in inhibiting the growth of AML cells and in their degradation of CDK9. These measurements are reported as half-maximum growth inhibitory and half-maximum degradation concentrations, IC50s and DC50s, respectively. Maximum percent degradation (Dmax) values were also obtained during the CDK9 degradation assessments. The common MTS assay was used to acquire the IC50 values, while the DC50 values were obtained using an automated western blot experiment. These values are presented in Table 2, along with pIC50 (log(nM IC50)) to more accurately reflect the differences/lack thereof in in vitro cytotoxicity. The notation “N:N*” represents the number of linker atoms on each side of the rigid triazole ring for a given degrader. Predicted log D values, calculated using the ChemAxon […], are also provided for each degrader. To characterize the physicochemical properties of the new degrader series, two additional assays were performed: a kinetic aqueous solubility assay and the chromatographic log D experiment described earlier. Aqueous solubility is shown in μM while experimentally determined log D is shown as log k′80. Details regarding the execution of each experiment are provided below.

CDK9 [5] = molecular target: T1, CDK9; assay: CDK9 degradation, automated western blot, triazole-containing AT7519 degraders (MV411); type: cell-based; details: for DC50: CDK9 degradation, MV411 cells
Procedure: as §1

AML cells = assay: Drug washout experiment (cytotoxicity); type: cell-based; details: 6 h drugging, 48 h total
Procedure: To better evaluate the catalytic mechanism of action of this degrader series, a drug washout (WO) experiment was performed. This experiment involved the drugging of cells for six hours after which the cell media was replaced with a drug-free batch.

[6] = pH 7.4
Procedure: as §2

[7] = cytotoxicity, MOLM13 cells, read-out: IC50
[8] = MOLM13, fetal bovine serum, read-out: IC50 (μM) FBS
[9] = MOLM13, human serum, read-out: IC50 (μM) HS
[10] = growth inhibition, MV411 cells, MTS, read-out: IC50
[11] = maximum percent CDK9 degradation
[12] = Homo sapiens, MOLM-13, cytotoxicity, MOLM13 cells, read-out: IC50
[13] = Homo sapiens, MOLM-13, MOLM13, fetal bovine serum, read-out: IC50 (μM) FBS
[14] = MOLM-13, MOLM13, human serum, read-out: IC50 (μM) HS

DC50 (CDK9 [2])	logk′80 [3]	Solubility (Kinetic solubility assay)	DC50 (CDK9 [5])	solubility at 1.5 h (Kinetic solubility assay)	Dmax (%) (CDK9 [5]; [11])	Solubility [6]	Structure (SMILES)	pIC50 (MV411 cells; defined as log(nM IC50), MV411)	IC50 (MV411 cells; [10])	IC50 (MOLM13 cells [1]; [12])	IC50 (MOLM13 cells [4]; [13])	IC50 (MOLM13 cells [4]; [14])	also measured
210 nM	0.11	16 µM and 15.7 µM	–	–	–	–	COc1cc(F)ccc1-c1cc(Nc2cc(CS(C)(=O)=NC(=O)CN3CCC(c4cn(CC(=O)N5CCN(CCCc6cccc7c6C(=O)N(C6CCC(=O)NC6=O)C7=O)CC5)nn4)CC3)ccn2)ncc1F (centres unmarked) [Compound 4.72, 2-(4-(1-(2-(4-(3-(2-(2,6-dioxopiperidin-3-yl)-1,3-dioxoisoindolin-4-yl)propyl)piperazin-1-yl)-2-oxoethyl)-1H-1,2,3-triazol-4-yl)piperidin-1-yl)-N-(((2-((5-fluoro-4-(4-fluoro-2-methoxyphenyl)pyridin-2-yl)amino)pyridin-4-yl)methyl)(methyl) (oxo)-16-sulfaneylidene) acetamide]	–	–	–	–	–	IC50 (MOLM13 cells [1]; MOLM13, read-out: potency): 150 nM; IC50 (MOLM13 cells [1]; [7]): 180 nM; IC50 (MOLM13 cells [4]; [8]): 0.47 µM; IC50 (MOLM13 cells [4]; [9]): 0.55 µM
–	0.140	–	99.9 nM	5.46 µM (≈ 4.78 µg/mL)	–	–	O=C1CCC(N2C(=O)c3cccc(OCCCCCCn4cc(CCCCCN5CCC(NC(=O)c6n[nH]cc6NC(=O)c6c(Cl)cccc6Cl)CC5)nn4)c3C2=O)C(=O)N1 (centres unmarked) [Compound 4.10, 4-(2,6-dichlorobenzamido)-N-(1-(5-(1-(6-((2-(2,6-dioxopiperidin-3-yl)-1,3-dioxoisoindolin-4-yl)oxy)hexyl)-1H-1,2,3-triazol-4-yl)pentyl)piperidin-4-yl)-1H-pyrazole-3-carboxamide]	–	–	–	–	–	improvement in cytotoxicity over 4.3 (MV411 cells; 4.10 versus 4.3): over 5 fold; IC50 (MV411 cells; Homo sapiens, MV4-11, defined as log(nM IC50), MV411, read-out: pIC50 (converted)): 50.1 nM; IC50 (MV411 cells; Homo sapiens, MV4-11, growth inhibition, MV411 cells, MTS, read-out: IC50): 46.6 nM; Dmax (CDK9 [5]; MV4-11, maximum percent CDK9 degradation): 70.1%; retention of potency after drug washout (AML cells): retain their potency
–	0.106	–	404 nM	–	58.6%	31.3 µM (≈ 26.1 µg/mL)	O=C1CCC(N2C(=O)c3cccc(OCCCn4cc(CCCCCN5CCC(NC(=O)c6n[nH]cc6NC(=O)c6c(Cl)cccc6Cl)CC5)nn4)c3C2=O)C(=O)N1 (centres unmarked) [Compound 4.7c, 4-(2,6-dichlorobenzamido)-N-(1-(5-(1-(3-((2-(2,6-dioxopiperidin-3-yl)-1,3-dioxoisoindolin-4-yl)oxy)propyl)-11H-1,2,3-triazol-4-yl)pentyl)piperidin-4-yl)-1H-pyrazole-3-carboxamide]	2.3	194 nM	–	–	–	–
–	0.100	–	130 nM	–	67.5%	12.4 µM (≈ 10.3 µg/mL)	O=C1CCC(N2C(=O)c3cccc(OCCCCn4cc(CCCCN5CCC(NC(=O)c6n[nH]cc6NC(=O)c6c(Cl)cccc6Cl)CC5)nn4)c3C2=O)C(=O)N1 (centres unmarked) [Compound 4.7a, 4-(2,6-dichlorobenzamido)-N-(1-(4-(1-(4-((2-(2,6-dioxopiperidin-3-yl)-1,3-dioxoisoindolin-4-yl)oxy)buty)-1H-1,2,3-triazol-4-yl)butyl)piperidin-4-yl)-1H-pyrazole-3-carboxamide]	2.4	241 nM	–	–	–	–
820 nM	0.18	–	–	28.9 µM (≈ 26.4 µg/mL)	–	–	COc1cc(F)ccc1-c1cc(Nc2cc(CS(C)(=O)=NC(=O)CN3CCC(CN4CCC(COc5cccc6c5C(=O)N(C5CCC(=O)NC5=O)C6=O)CC4)CC3)ccn2)ncc1F (centres unmarked) [Compound 4.78, 2-(4-{[4-({[2-(2,6-dioxopiperidin-3-yl)-1,3-dioxo-2,3-dihydro-1H-isoindol-4-yl]-oxy}methyl)piperidin-1-yl]methyl}piperidin-1-yl)-N-{[(2-{[5-fluoro-4-(4-fluoro-2-methoxyphenyl)pyridin-2-yl]amino}pyridin-4-yl)methyl](methyl)oxo-λ^6-sulfanylidene}acetamide]	–	–	410 nM	0.52 µM	0.49 µM	–
70 nM	0.13 and 0.16	–	–	5.2 µM (≈ 4.76 µg/mL)	–	–	COc1cc(F)ccc1-c1cc(Nc2cc(CS(C)(=O)=NC(=O)CCc3cn(CCOCCOCCOc4cccc5c4C(=O)N(C4CCC(=O)NC4=O)C5=O)nn3)ccn2)ncc1F (centres unmarked) [Compound 4.34, 3-(1-(2-(2-(2-((2-(2,6-dioxopiperidin-3-yl)-1,3-dioxoisoindolin-4-yl)oxy)ethoxy)ethoxy)ethyl)-1H-1,2,3-triazol-4-yl)-N-(((2-((5-fluoro-4-(4-fluoro-2-methoxyphenyl)pyridin-2-yl)amino)pyridin-4-yl)methyl)(methyl)(oxo)-16-sulfaneylidene)propenamide]	–	–	60 nM	0.29 µM	1.52 µM	–
220 nM	–	58.2 µM (≈ 57 µg/mL)	–	~60 µM (≈ 58.8 µg/mL)	–	–	COc1cc(F)ccc1-c1cc(Nc2cc(CS(C)(=O)=NC(=O)CN3CCN(Cc4cn(C5CN(C(=O)CNc6cccc7c6C(=O)N(C6CCC(=O)NC6=O)C7=O)C5)nn4)CC3)ccn2)ncc1F (centres unmarked) [Compound 4.49, 2-(4-((1-(1-((2-(2,6-dioxopiperidin-3-yl)-1,3-dioxoisoindolin-4-yl)glycyl)azetidin-3-yl)-1H-1,2,3-triazol-4-yl)methyl)piperazin-1-yl)-N-(((2-((5-fluoro-4-(4-fluoro-2-methoxyphenyl)pyridin-2-yl)amino)pyridin-4-yl)methyl)(methyl) (oxo)-16-sulfaneylidene) acetamide]	–	–	420 nM	0.67 µM	1.24 µM	IC50 (MOLM13 cells [1]; Homo sapiens, MOLM-13, text, MOLM13, read-out: potency): 420 nM
–	0.176	–	61.4 nM	–	78.0%	4.70 µM (≈ 4.25 µg/mL)	O=C1CCC(N2C(=O)c3cccc(OCCCCCCn4cc(CCCCCCCN5CCC(NC(=O)c6n[nH]cc6NC(=O)c6c(Cl)cccc6Cl)CC5)nn4)c3C2=O)C(=O)N1 (centres unmarked) [Compound 4.9b]	1.8	63.3 nM	–	–	–	retention of potency after drug washout (AML cells): retain their potency
–	0.112	–	951 nM	–	68.5%	13.2 µM (≈ 11.2 µg/mL)	O=C1CCC(N2C(=O)c3cccc(OCCCCn4cc(CCCCCN5CCC(NC(=O)c6n[nH]cc6NC(=O)c6c(Cl)cccc6Cl)CC5)nn4)c3C2=O)C(=O)N1 (centres unmarked) [Compound 4.8b, 4-(2,6-dichlorobenzamido)-N-(1-(5-(1-(4-((2-(2,6-dioxopiperidin-3-yl)-1,3-dioxoisoindolin-4-yl)oxy)butyl)-1H-1,2,3-triazol-4-yl)pentyl)piperidin-4-yl)-1H-pyrazole-3-carboxanmide]	2.1	130 nM	–	–	–	–

Structure (SMILES)	DC50 (CDK9 [2])	logk′80 [3]	Solubility (Kinetic solubility assay)	DC50 (CDK9 [5])	solubility at 1.5 h (Kinetic solubility assay)	Dmax (%) (CDK9 [5]; [11])	Solubility [6]	pIC50 (MV411 cells; defined as log(nM IC50), MV411)	IC50 (MV411 cells; [10])	IC50 (MOLM13 cells [1]; [12])	IC50 (MOLM13 cells [4]; [13])	IC50 (MOLM13 cells [4]; [14])	also measured
COc1cc(F)ccc1-c1cc(Nc2cc(CS(C)(=O)=NC(=O)C3CCCN(Cc4cn(C5CN(C(=O)CNc6cccc7c6C(=O)N(C6CCC(=O)NC6=O)C7=O)C5)nn4)C3)ccn2)ncc1F (centres unmarked) [Compound 4.62]	150 nM	0.11	13.8 µM (≈ 13.3 µg/mL)	–	–	–	–	–	–	–	–	–	IC50 (MOLM13 cells [1]; [7]): 360 nM; IC50 (MOLM13 cells [4]; [8]): 0.49 µM; IC50 (MOLM13 cells [4]; [9]): 1.34 µM
